target: T1, hSTING (Homo sapiens, UniProt Q86WV6, G230A/H232R/R293Q/R71H); assay: STING reporter assay in THP1-Dual KO-IFNAR2 cells (2′3′cGAMP stimulation, luciferase reporter); type: cell-based; conditions: final 2′3′cGAMP 15 μM, 24 h, luciferase reporter activity
T1 construct: host or cells: THP1-Dual KO-IFNAR2 cells
Experimental: STING pathway activation by the compounds described herein was measured using THP1-Dual™ cells (KO-IFNAR2).
THP1-Dual™ KO-IFNAR2 Cells (obtained from invivogen) were maintained in RPMI, 10% FCS, 5 ml P/S, 2 mM L-glut, 10 mM Hepes, and 1 mM sodium pyruvate. Compounds were spotted in empty 384 well tissue culture plates (Greiner 781182) by Echo for a final concentration of 0.0017-100 μM. Cells were plated into the TC plates at 40 μL per well, 2×10E6 cells/mL. For activation with STING ligand, 2′3′cGAMP (MW 718.38, obtained from Invivogen), was prepared in Optimem media.
The following solutions were prepared for each 1×384 plate: • Solution A: 2 mL Optimem with one of the following stimuli: • 60 μL of 10 mM 2′3′cGAMP→150 μM stock • Solution B: 2 mL Optimem with 60 μL Lipofectamine 2000→Incubate 5 min at RT
2 mL of solution A and 2 ml Solution B was mixed and incubated for 20 min at room temperature (RT). 20 μL of transfection solution (A+B) was added on top of the plated cells, with a final 2′3′cGAMP concentration of 15 μM. The plates were then centrifuged immediately at 340 g for 1 minute, after which they were incubated at 37° C., 5% CO2, >98% humidity for 24 h. Luciferase reporter activity was then measured. EC50 values were calculated by using standard methods known in the art.
Luciferase reporter assay: 10 μL of supernatant from the assay was transferred to white 384-plate with flat bottom and squared wells. One pouch of QUANTI-Luc™ Plus was dissolved in 25 mL of water. 100 μL of QLC Stabilizer per 25 mL of QUANTI-Luc™ Plus solution was added. 50 μL of QUANTI-Luc™ Plus/QLC solution per well was then added. Luminescence was measured on a Platereader (e.g., Spectramax I3X (Molecular Devices GF3637001)).
Luciferase reporter activity was then measured. EC50 values were calculated by using standard methods known in the art.

T1 sequence (Q86WV6 whole entry R71H/G230A/H232R/R293Q): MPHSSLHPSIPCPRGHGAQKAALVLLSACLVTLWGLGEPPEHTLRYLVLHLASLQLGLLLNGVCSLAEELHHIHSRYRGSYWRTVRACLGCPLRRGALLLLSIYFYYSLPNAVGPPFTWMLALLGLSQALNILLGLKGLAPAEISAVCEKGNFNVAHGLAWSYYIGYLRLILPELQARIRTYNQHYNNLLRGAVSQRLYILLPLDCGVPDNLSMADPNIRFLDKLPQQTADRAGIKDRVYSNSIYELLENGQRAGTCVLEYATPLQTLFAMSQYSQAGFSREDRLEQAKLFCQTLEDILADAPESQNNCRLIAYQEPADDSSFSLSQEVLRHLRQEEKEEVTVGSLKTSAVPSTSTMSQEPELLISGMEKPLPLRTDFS

| EC50 | Structure (SMILES) |
| --- | --- |
| 200 to 1000 nM | CCc1ccc(-n2cc(-c3ccc4[nH]cc(NS(=O)(=O)CC5CCCO5)c4c3)cn2)cc1 (stereo not shown) [Compound 101, N-(5-(1-(4-ethylphenyl)-1H-pyrazol-4-yl)-1H-indol-3-yl)-1-(tetrahydrofuran-2-yl)methanesulfonamide] |
| 200 to 1000 nM | CCc1ccc(-n2cc(-c3ccc4[nH]cc(NS(=O)(=O)CC5CC5)c4c3)cn2)cc1 [Compound 102, 1-cyclopropyl-N-(5-(1-(4-ethylphenyl)-1H-pyrazol-4-yl)-1H-indol-3-yl)methanesulfonamide] |
| 200 to 1000 nM | CCc1ccc(-n2cc(-c3ccc4[nH]cc(NS(=O)(=O)C5CCC5)c4c3)cn2)cc1 [Compound 103, N-(5-(1-(4-ethylphenyl)-1H-pyrazol-4-yl)-1H-indol-3 yl)cyclobutanesulfonamide] |
| 1000 to 5000 nM | CCc1ccc(-n2cc(-c3ccc4[nH]cc(NS(=O)(=O)CC)c4c3)cn2)cc1 [Compound 104, N-(5-(1-(4-ethylphenyl)-1H-pyrazol-4-yl)-1H-indol-3-yl)ethanesulfonamide] |

Source: patent publication US20250136597A1, “COMPOUNDS AND COMPOSITIONS FOR TREATING CONDITIONS ASSOCIATED WITH STING ACTIVITY” (IFM Due, Inc., priority 2020, published 2025)
